Assay results as given in patent US12478610B2, “Compositions of tryptophol derivatives and 4-ethyl-phenol derivatives, and methods of using same” (B. G. Negev Technologies and Applications Ltd., at …, priority 2020, dated 2025).

Legend:
[1] = test system: human normal whole blood; test: Thromboelastography (TEG) of human normal whole blood clotting; assay type: cell-based
Description: Clotting of whole blood (from healthy volunteers, and diabetics patients) was monitored by thromboelastography (TEG) on a TEGs 5000 Hemostasis Analyzer (Haemoscope Inc., Niles, IL) equipped with two independent channels. Thermoelastograms were recorded at 37° C. and analyzed using the TEGs Analytical Software) version 4.2.3 provided with the instrument). Reported clotting parameters are the time until the onset in the measured strength considered as clot reaction time, R; the time until achieving 20% of the maximum clot strength (clotting time), k; the rate of clot strength increase measuring the kinetics of clot formation, the α angle; and finally, the maximum clot strength, MA.
Aqueous solutions of molecules mixture in a ratio of 1:1 in deionized water were prepared in the concentration range of 400-1,800 μM. TEG cups were first filled with […] of 250 mM CaCl2, supplemented with […] of human blood sample, followed by the addition of the appropriate volume of the molecule's mixture dissolved in water to obtain the above rang of concentration or TBS as control before initiating the test. The test completed when clotting parameters obtained final values or within 45 min. Each sample was run in duplicates, n≥5 individual blood samples. TEG values of control fell within the acceptable range reported for human whole blood barring an expected decrease in clot strength (MA), as tested blood was deficient in platelets (Scarpelini et al. Biol. Res., 2009).
The inventors have studied the effect of tryptophol acetate and tyrosol acetate on human normal whole blood coagulation. The blood clotting was monitored by thromboelastography (TEG). TEG is one of the most common whole-blood viscoelastic coagulation tests used in clinical laboratories and at the point of care. TEG provides a direct information of the blood clotting kinetic and strength, with no ‘added reagents. Clotting of human normal whole blood was monitored by TEG on a TEG 5000 Hemostasis Analyzer (Haemoscope Inc., Niles, IL) equipped with two independent channels. Thermoelastograms were recorded at 37° C. and analyzed using the TEG Analytical Software (version 4.2.3 provided using the instrument). Reported clotting parameters are the time till onset in the measured strength considered as the clot reaction time, R; the time till achieving 20% of the maximum clot strength (clotting time), k; the rate of the clot strength increase measuring the kinetics of clot formation, the α angle; and lastly, the maximum clot strength, MA (see table 1). […]

[2] = test system: human normal whole blood; test: as above; assay type: cell-based; details: 200 μM (mixture: 200 μM each); healthy blood; TBS control
[3] = 400 μM (mixture: 400 μM each), healthy blood, TBS control

Structure (SMILES) | K [1, 3] | MA (mm) [1, 3] | R (min) [1, 3] | α (degree) [1, 3] | effect on the TEG parameters as seen with the mixture at 200 μM each ([1]; single substance at a similar concentration, whole blood) | K [2] | MA (mm) [2] | R [2] | α (degree) [2]
NCCc1c[nH]c2ccc(O)cc12 [Serotonin, serotonin] | 1.5 ± 0.2 min | 61.3 ± 1.7 mm | 5.2 + 0.4 min | 62.4 ± 0.9 degree | did not show a similar effect | 2.4 ± 0.2 min | 60 ± 0.4 mm | 6.8 ± 0.9 min | 58.2 ± 0.3 degree
CC(=O)OCCc1ccc(O)cc1 [compound 180, Tyrosol acetate] |  |  |  |  |  | 1.8 min | 59.0 mm | 6.4 min | 59.6 degree
CC(=O)OCCc1c[nH]c2ccccc12 [compound 203, Tryptophol acetate] |  |  |  |  |  | 2.3 ± 0.1 min | 60.5 ± 1.5 mm | 6.2 ± 0.2 min | 56.8 ± 2.7 degree
